Where two headings read alike, the source gives them in different places.
Key:
[1] = biological target: T1, interaction of ICAM-1 with the Leukointegrin CD18/CD11a (LFA-1) (Homo sapiens, UniProt P05107+P20701); test: Assay to determine inhibition of LFA-1 binding to ICAM-1 (immunopurified LFA-1 on plate-bound sICAM-1, ELISA readout)
T1 construct: endogenous in cells; sICAM-1: made in house, secreted from transfected CHO DUX cells

[2] = tested on: cell bound form of LFA-1 (CD18, CD11a) with ICAM-1, SKW3 cells; test: Inhibition of SKW3 cell binding to ICAM-1 (PMA-stimulated); format: cell-based, human; settings: Homo sapiens, read-out: Assay to Detect SKW3 Cells Binding to ICAM IC50
In short: (§1)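 Compound-treated, PMA-stimulated human T-cell line SKW3 (50 μg/mL PMA final) allowed to adhere for 2 h at 37° C to wells coated with sICAM-1 at 40 μg/mL or fibronectin at 100 μg/mL. After gentle RPMI wash, 50% inhibition concentration or range reported in μM.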

[3] = tested on: cell bound fibronectin receptor (VLA4) with fibronectin, SKW3 cells; test: Inhibition of SKW3 cell binding to fibronectin (selectivity counter-assay); format: cell-based, human; settings: for IC50: Homo sapiens, read-out: Assay to Detect SKW3 Cells Binding to FIBRONECTIN IC50
In short: as §1

[4] = tested on: LFA-1 dependent aggregation of JY cells; test: JY cell homotypic aggregation assay (PMA-stimulated); format: cell-based, human; settings: Homo sapiens
From the text: This aggregation can be enhanced by the addition of phorbol esters. […] Thus, the extent of LFA-1-dependent binding may be determined by assessing the extent of spontaneous or phorbol ester-dependent aggregate formation.
An agent which interferes with LFA-1 -dependent aggregation can be identified through the use of an assay capable of determining whether the agent interferes with either spontaneous, or phorbol ester-dependent aggregation of Epstein-Barr virus transformed cells. It is preferable to employ cells of the JY cell line (Terhost, L; et aL, Proc. Natl. Acad. Sci. USA, 1976, 73, 910) for the homotypic aggregation assay. This assay, capable of measuring LFA-1 dependent aggregation, may be employed to identify agents which act as antagonists to the LFA-1 dependent aggregation. Such agents may act by impairing the ability of either LFA-1 or ICAM-1 to mediate aggregation. Thus, agents may be examined to directly determine if they are antagonists of LFA-1 aggregation.
Description of Assay Protocol:
JY cells are cultured in RPMI 1640 culture medium supplemented with 10% fetal calf serum and 50 μg/mL gentamycin. The cells are cultured at 37° C. in an atmosphere of 5% CO2 at a relative humidity of 95%. JY cells used in this assay are washed two times with RPMI 1640 medium containing 5 mM HEPES buffer and resuspended to a concentration of 2·10^6 cells/mL. Added to flat-bottomed, 96-well microtiter plates are 50 μL of test compound diluted in complete medium, 50 μL of complete medium with or without purified monoclonal antibodies (negative and positive controls for inhibition, respectively), 50 μL of complete medium containing 200 ng/mL of the phorbol ester phorbol myristate acetate (PMA) and 100 μL of cells at a concentration of 2·10^6 cells/mL in complete medium. This yields a final concentration of […] PMA and 2·10^5 cells/well. Cells are allowed to settle spontaneously, and the degree of aggregation is scored at various time points. […] This procedure has been described by Rothlein, R. R.; et al., J. Exp. Med. 1986, 163, 1132-1149. This paper also reported that antibody to LFA-1 is capable of inhibiting the formation of aggregates.
Data are reported as the concentration or concentration range (in μM) at which 50% of binding is inhibited.

[5] = values marked e approximated from incomplete dose-response curve
[6] = SKW3, values marked c: no inhibition observed up to highest dose
[7] = values marked c: no inhibition observed up to highest dose
[8] = No inh = no inhibition observed up to highest dose, exact quantification not always possible due to intrinsic toxicity
[9] = SKW3, No inh = no inhibition observed up to highest dose, exact quantification not always possible due to intrinsic toxicity

T1 sequence (P20701 26-1170): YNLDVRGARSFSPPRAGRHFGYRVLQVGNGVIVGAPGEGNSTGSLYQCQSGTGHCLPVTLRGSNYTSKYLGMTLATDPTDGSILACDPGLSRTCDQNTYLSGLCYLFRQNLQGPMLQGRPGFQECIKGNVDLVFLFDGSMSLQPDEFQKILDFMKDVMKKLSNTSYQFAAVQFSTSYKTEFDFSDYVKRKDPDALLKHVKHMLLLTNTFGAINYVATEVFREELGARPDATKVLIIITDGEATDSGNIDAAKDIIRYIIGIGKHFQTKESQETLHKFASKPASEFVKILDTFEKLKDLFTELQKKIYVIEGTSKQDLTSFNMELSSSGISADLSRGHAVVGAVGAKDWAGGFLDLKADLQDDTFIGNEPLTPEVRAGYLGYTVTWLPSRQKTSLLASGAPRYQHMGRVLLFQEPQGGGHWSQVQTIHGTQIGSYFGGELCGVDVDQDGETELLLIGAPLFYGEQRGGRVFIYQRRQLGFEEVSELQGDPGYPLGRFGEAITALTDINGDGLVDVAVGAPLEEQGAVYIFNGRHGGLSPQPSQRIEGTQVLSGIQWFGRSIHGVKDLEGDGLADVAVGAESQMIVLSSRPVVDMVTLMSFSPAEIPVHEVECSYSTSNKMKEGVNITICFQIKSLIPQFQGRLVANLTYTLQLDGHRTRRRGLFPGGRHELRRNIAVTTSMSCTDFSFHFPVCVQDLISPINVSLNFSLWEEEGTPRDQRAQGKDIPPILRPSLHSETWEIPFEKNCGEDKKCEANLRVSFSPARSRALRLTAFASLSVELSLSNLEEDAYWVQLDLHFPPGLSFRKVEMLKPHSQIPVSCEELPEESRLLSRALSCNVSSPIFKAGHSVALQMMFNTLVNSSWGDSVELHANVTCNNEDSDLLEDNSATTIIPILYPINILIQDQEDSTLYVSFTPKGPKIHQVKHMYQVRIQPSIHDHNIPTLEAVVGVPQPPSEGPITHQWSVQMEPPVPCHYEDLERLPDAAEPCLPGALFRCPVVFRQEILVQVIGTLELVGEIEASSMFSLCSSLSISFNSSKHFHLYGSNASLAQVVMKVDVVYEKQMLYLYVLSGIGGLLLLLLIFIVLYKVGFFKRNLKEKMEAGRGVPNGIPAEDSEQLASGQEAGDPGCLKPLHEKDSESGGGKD
T1 sequence (P05107 23-769): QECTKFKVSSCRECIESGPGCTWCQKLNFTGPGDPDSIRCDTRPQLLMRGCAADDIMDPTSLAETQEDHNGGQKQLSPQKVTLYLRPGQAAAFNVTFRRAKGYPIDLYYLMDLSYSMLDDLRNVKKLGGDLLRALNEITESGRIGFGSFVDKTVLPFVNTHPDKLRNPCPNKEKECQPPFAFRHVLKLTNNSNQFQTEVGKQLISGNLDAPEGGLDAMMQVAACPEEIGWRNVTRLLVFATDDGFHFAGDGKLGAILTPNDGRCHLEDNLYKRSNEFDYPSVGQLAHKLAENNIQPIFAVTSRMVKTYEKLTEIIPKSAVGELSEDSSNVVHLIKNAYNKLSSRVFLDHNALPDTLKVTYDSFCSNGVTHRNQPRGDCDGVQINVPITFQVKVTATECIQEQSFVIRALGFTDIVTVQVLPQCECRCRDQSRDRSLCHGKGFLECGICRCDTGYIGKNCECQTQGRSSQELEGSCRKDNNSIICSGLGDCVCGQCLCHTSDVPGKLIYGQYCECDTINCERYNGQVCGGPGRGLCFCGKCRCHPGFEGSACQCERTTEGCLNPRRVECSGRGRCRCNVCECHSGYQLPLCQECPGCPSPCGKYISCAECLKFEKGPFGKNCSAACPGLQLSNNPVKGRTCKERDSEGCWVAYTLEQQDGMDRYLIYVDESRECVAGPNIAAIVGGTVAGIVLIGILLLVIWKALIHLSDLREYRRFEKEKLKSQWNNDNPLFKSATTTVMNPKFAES

Row | SMILES | Kd [1, 5] [nM] | IC50 [2, 6] [µM] | Assay to Detect SKW3 Cells Binding to FIBRONECTIN IC50 [3, 7] | IC50 [4] [nM] | Cellular Toxicity Assay MTT LD50 (SKW3 cells) [µM] | Kd [1] [nM] | IC50 ([2]; SKW3) [µM] | Assay to Detect SKW3 Cells Binding to FIBRONECTIN IC50 [3, 8] | IC50 [3, 9] [µM] | IC50 [3, 6] [µM]
1 | CC1(Cc2ccc(Br)cc2)OC(=O)N(c2cc(Cl)cc(Cl)c2)C1=O (stereo not drawn) [Example 180] | 190 | 1.5 to 3 | No inh^c | 1300 | 200 to 400 |  |  |  |  | 
2 | C[C@@]1(Cc2ccc(Br)cc2)C(=O)N(c2cc(Cl)cc(Cl)c2)C(=O)N1C[C@H](O)c1ccccc1 [Example 132] | 220 | 5 | No inh^c | 2400 | 200 to 400 |  |  |  |  | 
3 | C[C@@]1(Cc2ccc(Br)cc2)C(=O)N(c2cc(Cl)cc(Cl)c2)C(=O)N1Cc1cccc(C(=N)N)c1 [Example 243] |  |  |  | 3100 | 10 to 20 | 110 | 5 to 6 | No inh^c |  | 
4 | CC(C)(C)N1C(=O)N(c2cc(Cl)cc(Cl)c2)C(=O)C1(C)Cc1ccc(Br)cc1 (stereo not drawn) [Example 177] | 250 | 7 to 14 | No inh^c | 3700 | 155 to 310 |  |  |  |  | 
5 | C[C@@]1(Cc2ccc(Br)cc2)C(=O)N(c2cc(Cl)cc(Cl)c2)C(=O)N1CCCCCC#N [Example 257] |  |  |  | 600 | 300 | 80 | 1.6 | No inh^c |  | 
6 | C[C@@]1(Cc2ccc(Br)cc2)C(=O)N(c2cc(Cl)cc(Cl)c2)C(=O)N1CCCCS(=O)(=O)O [Example 250] |  |  |  | 100 | 100 to 200 | 40 | < 1 | No inh^c |  | 
7 | C[C@@]1(Cc2ccc(Br)cc2)C(=O)N(c2cc(Cl)cc(Cl)c2)C(=O)N1CCCN [Example 240] |  |  |  | 6300 | 11 to 23 | 110 | 1 to 3 |  | 13.4 | 
8 | CN1C(=O)N(c2cc(Cl)cc(Cl)c2)C(=O)C1(C)Cc1cccc(Br)c1 (stereo not drawn) [Example 149] | 200 | 10 |  | 2900 | 170 to 340 |  |  |  |  | > 10
9 | CCCN1C(=O)N(c2cc(Cl)cc(Cl)c2)C(=O)C1(C)Cc1ccc(Br)cc1 (stereo not drawn) [Example 137] | 40 | 1 to 3 | No inh^c | 400 | 200 to 400 |  |  |  |  | 
10 | CN1C(=S)N(c2cc(Cl)cc(Cl)c2)C(=O)C1(C)Cc1ccc(Br)cc1 (stereo not drawn) [Example 80] | 190 | 5 | No inh^c | 3200 | >400 |  |  |  |  | 
11 | C[C@@]1(Cc2ccc(Br)cc2)C(=O)N(c2cc(Cl)cc(Cl)c2)C(=O)N1C(=O)[C@H]1CCCN1 [Example 235] |  |  |  | 1600 | 100 to 200 | 330 | 9 | No inh^c |  | 
12 | C[C@@]1(Cc2ccc(Br)cc2)C(=O)N(c2cc(Cl)cc(Cl)c2)C(=O)N1Cc1cccnc1 [Example 111] | 190 | 3 | No inh^c | 75000 | 36 |  |  |  |  | 
13 | CCCC1(Cc2ccccc2)C(=O)N(c2cc(Cl)cc(Cl)c2)C(=O)N1C (stereo not drawn) [Example 94] | 740 | 50 to 100 | No inh^c | 25000 | 200 |  |  |  |  | 
14 | C[C@]1(Cc2ccc(Br)cc2)NC(=O)N(c2cc(Cl)c(Cl)c(Cl)c2)C1=O [Example 43] | 170 | 3 to 6 | No inh^c | 1800 | 25 to 50 |  |  |  |  | 
15 | CN1CCC(N2C(=O)N(c3cc(Cl)cc(Cl)c3)C(=O)[C@@]2(C)Cc2ccc(Br)cc2)CC1 [Example 37] | 160 | 5 to 10 |  | 1600 | <13 |  |  |  |  | > 19
16 | C[C@]1(Cc2ccccc2)NC(=O)N(c2cc(Cl)cc(Cl)c2)C1=O [Example 265] |  |  |  | 3000 | 130 to 250 | 280 | 19 to 38 |  | > 75 | 
17 | C[C@@]1(Cc2ccc(Br)cc2)C(=O)N(c2cc(Cl)cc(Cl)c2)C(=O)N1Cc1ccc(C(=N)N)cc1 [Example 242] |  |  |  | 2800 | 16 to 32 | 400 | 10 to 25 | No inh^c |  | 
18 | C[C@@]1(Cc2ccc(Br)cc2)C(=O)N(c2cc(Cl)cc(Cl)c2)C(=O)N1C[C@@H](O)c1ccccc1 [Example 133] | 150 | 5 to 10 | No inh^c | 400 | >400 |  |  |  |  | 
19 | CN1C(=O)N(c2cc(Cl)cc(Cl)c2)C(=O)[C@@]1(C)Cc1cc(Br)cc(Br)c1 [Example 118] | 460 | > 100 |  | 3400 | 200 to 400 |  |  |  |  | > 100
20 | CN1C(=O)N(c2cc(Cl)cc(Cl)c2)C(=O)[C@@]1(C)Cc1ccc(C#N)cc1 [Example 127] | 50 | 0.8 to 1.6 | No inh^c | 100 | 125 to 250 |  |  |  |  | 
21 | C[C@@]1(Cc2ccc(Br)cc2)C(=O)N(c2cc(Cl)cc(Cl)c2)C(=O)N1CCCCCNC(=N)N [Example 264] |  |  |  | 400 | 12 to 24 | 120 | 2 to 5 | No inh^c |  | 
22 | CC(C)N1C(=O)N(c2cc(Cl)cc(Cl)c2)C(=O)C1Cc1ccccc1 (stereo not drawn) [Example 10] | 190 | 50 | No inh^c | 6300 | >500 |  |  |  |  | 
23 | CN1C(=O)N(c2cc(Cl)c(Cl)c(Cl)c2)C(=O)C1(C)Cc1ccc(Br)cc1 (stereo not drawn) [Example 159] | 110 | 10 to 20 | No inh^c | 2000 | 50 to 100 |  |  |  |  | 
24 | C[C@@]1(Cc2ccc(Br)cc2)C(=O)N(c2cc(Cl)cc(Cl)c2)C(=O)N1CCCCNC(=N)N [Example 263] |  |  |  | 800 | 20 to 40 | 90 | 0.8 to 1.6 | No inh^c |  | 
25 | CCC1(Cc2ccccc2)C(=O)N(c2cc(Cl)cc(Cl)c2)C(=O)N1C (stereo not drawn) [Example 93] | 1270 | > 100 | No inh^c | 13000 | 100 to 200 |  |  |  |  | 
26 | CC(=O)N1C(=O)N(c2cc(Cl)cc(Cl)c2)C(=O)[C@@]1(C)Cc1ccc(C#N)cc1 [Example 128] | 160 | 1.5 | No inh^c | 100 | 125 to 250 |  |  |  |  | 
27 | C[C@@]1(Cc2ccc(Br)cc2)C(=O)N(c2cc(Cl)cc(Cl)c2)C(=O)N1Cc1ccccc1O [Example 247] |  |  |  | 2300 | 40 to 80 | 230 | 1.5 to 3 | No inh^c |  | 
